The results in this text go back to ChEMBL document CHEMBL1158784, “Sorbicillin analogues and related dimeric compounds from Penicillium notatum” (2005).

The test system of assay [1] is Chlorella vulgaris. Briefly: Antimicrobial activity against Chlorella vulgaris at 20 ug/9 mm disk by agar diffusion method. In kind it is functional, organism-based.
For assay [2], the system named is Candida albicans. The assay is described as follows: Antimicrobial activity against Candida albicans at 20 ug/9 mm disk by agar diffusion method. In kind it is functional. In general terms: A growth-free zone around the sample is the usual read-out of agar diffusion tests.
For assay [3], the system named is Escherichia coli. Briefly: Antimicrobial activity against Escherichia coli at 20 ug/9 mm disk by agar diffusion method. In kind it is functional, organism-based.
The test system of assay [4] is Staphylococcus aureus. Briefly: Antimicrobial activity against Staphylococcus aureus at 20 ug/9 mm disk by agar diffusion method. Type of assay: functional.
Assay [5] deals with Desmodesmus subspicatus. The assay is described as follows: Antimicrobial activity against Scenedesmus subspicatus at 20 ug/9 mm disk by agar diffusion method. Type of assay: functional, organism-based.
For assay [6], the system named is Chlorella sorokiniana. The assay is described as follows: Antimicrobial activity against Chlorella sorokiniana at 20 ug/9 mm disk by agar diffusion method. In kind it is functional, organism-based.
Assay [7] deals with Bacillus subtilis. The assay is described as follows: Antimicrobial activity against Bacillus subtilis at 20 ug/9 mm disk by agar diffusion method. Type of assay: functional.
In assay [8] the test system is Streptomyces viridochromogenes. Briefly: Antimicrobial activity against Streptomyces viridochromogenes Tu57 at 20 ug/9 mm disk by agar diffusion method. Type of assay: functional, organism-based.
In assay [9] the test system is Rhizomucor miehei. The assay is described as follows: Antimicrobial activity against Mucor miehei at 20 ug/9 mm disk by agar diffusion method. Type of assay: functional, organism-based.

Activity calls are given as the source filed them. No cut-off for these calls is given here.

With `C/C=C/C=C/C(O)=C1/C(=O)[C@](C)(O)C(=O)C(C)=C1O`, the result in assay [1], in assay [3], in [5], in [6], in [8] and in assay [9] was inactive. The “inhibition zone (IZ)” value in assay [2] is 13 mm; in assay [4], 12 mm; in [7], 12 mm.

On to `C/C=C/CCC(=O)c1cc(C)c(O)c(C)c1O`, for which the result in assay [1], in assay [3], in assay [5], in [6], in [8] and in assay [9] was inactive. For the same compound, the “inhibition zone (IZ)” value in [2] was 13 mm; in assay [4] it was 12 mm; in [7], 12 mm.

As to `CC(C)=CCC/C(C)=C/CC/C(C)=C/C[C@@]12O[C@@H]1[C@H](O)C(C)=CC2=O`, the outcome in assay [1], in [3], in [5], in assay [6], in [8] and in assay [9] was inactive. Also, the “inhibition zone (IZ)” value came to 13 mm in [2], 12 mm in assay [4] and 12 mm in assay [7].

In the case of `C/C=C/C=C/C(=O)C1=C(C)C(=O)C(O)=C(C)C1=O`, the outcome in [1], in assay [2], in [3], in assay [4], in assay [5] and in assay [6] was inactive. The outcome in assay [7], in assay [8] and in assay [9] was inactive.

For `C/C=C/C=C/C(=O)C1=C[C@@]2(C)[C@H]3C(C(=O)/C=C/C=C/C)=C(O)C(C)=C(O)[C@@]3(C)O[C@@]2(O)[C@@](C)(O)C1=O`, the result in assay [1], in assay [2], in assay [3], in assay [4], in assay [5] and in [6] was inactive. Besides, the result in assay [7], in [8] and in assay [9] was inactive.

For the compound `C/C=C/C=C/C(O)=C1\C(=O)C(C)=C(O)[C@@](C)(O)C1=O`, the result in [1], in assay [2], in assay [3], in [4], in [5] and in assay [6] was inactive. Besides, the outcome in assay [7], in [8] and in assay [9] was inactive.

On to `C/C=C/CCC(=O)c1c(C)c(O)c(O)c(C)c1O`, for which the result in [1], in assay [2], in assay [3], in [4], in assay [5] and in assay [6] was inactive. Moreover, the outcome in assay [7], in [8] and in assay [9] was inactive.

With `C/C=C/C=C/C(=O)[C@]12C(=O)C(C)=C(O)[C@@](C)(O)[C@H]1[C@H]1\C(=C(O)/C=C/C=C/C)C(=O)[C@]2(C)C(=O)[C@@]1(C)O` [BISORBICILLINOL], the outcome in assay [1], in assay [3], in [5], in [6], in [8] and in assay [9] was inactive. The “inhibition zone (IZ)” value in assay [2] was 13 mm; in assay [4] it was 12 mm; in assay [7], 12 mm.

On to `C/C=C/C=C/C(O)=C1/C(=O)[C@]2(C)C(=O)[C@@](C)(O)[C@H]1[C@H]1[C@]2(C(=O)CC/C=C/C)C(=O)C(C)=C(O)[C@@]1(C)O` [BISVERTINOQUINOL], for which the outcome in assay [1], in [3], in assay [5], in assay [6], in [8] and in [9] was inactive. Further, the “inhibition zone (IZ)” value in [2] is listed as 13 mm; in [4], 12 mm; in assay [7], 12 mm.

For `C/C=C/C=C/C(O)=C1\C(=O)[C@]2(C)C(=O)[C@@](C)(O)[C@H]1[C@H]1OC(=O)C[C@]12CO` [REZISHANONE A], the result in assay [1], in assay [3], in [5], in [6], in assay [8] and in assay [9] was inactive. Moreover, the “inhibition zone (IZ)” value in [2] is 13 mm; in [4], 12 mm; in [7], 12 mm.

Turning to `C/C=C/C=C/C(O)=C1\C(=O)[C@]2(C)C(=O)[C@@](C)(O)[C@H]1C[C@@H]2OCCCC` [REZISHANONE B], the result in assay [1], in assay [3], in assay [5], in assay [6], in assay [8] and in [9] was inactive. For the same compound, the “inhibition zone (IZ)” value in assay [2] is given as 13 mm; in [4], 12 mm; in [7], 12 mm.

Take `C/C=C/C=C/C(O)=C1\C(=O)[C@]2(C)C(=O)[C@@](C)(O)[C@H]1C[C@@H]2OCC` [REZISHANONE C]: the result in [1], in assay [3], in [5], in assay [6], in [8] and in assay [9] was inactive. Also, the “inhibition zone (IZ)” value in assay [2] is listed as 13 mm; in assay [4] it was 12 mm; in assay [7] it was 12 mm.

With `C/C=C/CC/C(O)=C1\C(=O)[C@]2(C)C(=O)[C@@](C)(O)[C@H]1C[C@@H]2OCC` [REZISHANONE D], the outcome in [1], in assay [3], in assay [5], in [6], in assay [8] and in assay [9] was inactive. Also, the “inhibition zone (IZ)” value stood at 13 mm in assay [2], 12 mm in [4] and 12 mm in assay [7].

Turning to `C/C=C/CCC(=O)c1cc(C)c(O)cc1O` [SOHIRNONE A], the result in [1], in [3], in assay [5], in assay [6], in assay [8] and in assay [9] was inactive. Also, the “inhibition zone (IZ)” value in [2] stood at 13 mm; in assay [4] it was 12 mm; in assay [7], 12 mm.

In the case of `C/C=C/C=C/C(=O)c1c(C)c(O)c(O)c(C)c1O` [SOHIRNONE B], the result in [1], in assay [3], in assay [5], in [6], in [8] and in assay [9] was inactive. For the same compound, the “inhibition zone (IZ)” value in [2] is 13 mm; in assay [4] it was 12 mm; in assay [7] it was 12 mm.
